According to ChEMBL document CHEMBL3885861, “Open TG-GATES”:

Species: Rattus norvegicus
Experiment: Open TG-GATES - Regimen: Daily Repeat
Format: toxicity, organism-based, Sprague-Dawley
Parameters: regimen Daily Repeat, gender Male, age 6 weeks
Conditions: in vivo, po, 1000 mg/kg, route gavage, dose level High; for APTT / Bas / Eos / Fbg / Hb / Ht / Lym / MCH / MCHC / MCV / Mono / Neu / PT / Plat / RBC / Ret / WBC: tissue Blood; for KIDNEY_L / KIDNEY_R / KIDNEY_TOTAL: tissue Kidney; for LIVER: tissue Liver; for A/G / ALP / ALT / AST / BUN / CRE / Ca / Cl / DBIL / GLC / IP / K / LDH / Na / PL / RALB / TBIL / TC / TG / TP / gamma-GTP: tissue Plasma

## CC(C)(S)[C@@H](N)C(=O)O [PENICILLAMINE]
72 h, time 3 day
  TERMINAL_BW: 225.3 g
  APTT: 20.2 s
  Bas: 0%
  Eos: 1.2%
  Fbg: 286.4 mg/dL
  Hb: 13.2 g/dL
  Ht: 40.3%
  Lym: 78.6%
  MCH: 20.1 pg
  MCHC: 32.7%
  MCV: 61.6 fL
  Mono: 2.6%
  Neu: 16.8%
  PT: 14.4 s
  Plat: 121.8 x10_4/uL
  RBC: 657.4 x10_4/ul
  Ret: 6.2%
  WBC: 87.8 x10_2/uL
  KIDNEY_L: 1 g
  KIDNEY_R: 1 g
  KIDNEY_TOTAL: 2 g
  LIVER: 9.8 g
  A/G: 1
  ALP: 1073 IU/L
  ALT: 38 IU/L
  AST: 60.8 IU/L
  BUN: 13.2 mg/dL
  CRE: 0.2 mg/dL
  Ca: 10.7 mg/dL
  Cl: 105.8 meq/L
  DBIL: 0.012 mg/dL
  GLC: 166 mg/dL
  IP: 7.5 mg/dL
  K: 4.1 meq/L
  LDH: 94.2 IU/L
  Na: 144.2 meq/L
  PL: 143 mg/dL
  RALB: 2.8 g/dL
  TBIL: 0.038 mg/dL
  TC: 74.8 mg/dL
  TG: 50.4 mg/dL
  TP: 5.7 g/dL
  gamma-GTP: 0.8 IU/L
[…], time 7 day
  TERMINAL_BW: 247.8 g
  APTT: 21.8 s
  Bas: 0%
  Eos: 1.4%
  Fbg: 452.4 mg/dL
  Hb: 13.2 g/dL
  Ht: 40.6%
  Lym: 79.2%
  MCH: 19.2 pg
  MCHC: 32.5%
  MCV: 59 fL
  Mono: 3%
  Neu: 15%
  PT: 14.6 s
  Plat: 131.3 x10_4/uL
  RBC: 687.8 x10_4/ul
  Ret: 4.6%
  WBC: 104.2 x10_2/uL
  KIDNEY_L: 1.1 g
  KIDNEY_R: 1.1 g
  KIDNEY_TOTAL: 2.1 g
  LIVER: 10.7 g
  A/G: 0.9
  ALP: 1010.8 IU/L
  ALT: 37 IU/L
  AST: 49.6 IU/L
  BUN: 15.2 mg/dL
  CRE: 0.2 mg/dL
  Ca: 10.8 mg/dL
  Cl: 104.4 meq/L
  DBIL: 0.016 mg/dL
  GLC: 169.2 mg/dL
  IP: 6.9 mg/dL
  K: 3.8 meq/L
  LDH: 72.4 IU/L
  Na: 142.4 meq/L
  PL: 156.4 mg/dL
  RALB: 2.8 g/dL
  TBIL: 0.066 mg/dL
  TC: 86.8 mg/dL
  TG: 59.2 mg/dL
  TP: 5.9 g/dL
  gamma-GTP: 1 IU/L
[…], time 14 day
  TERMINAL_BW: 282 g
  APTT: 22.3 s
  Bas: 0%
  Eos: 1.2%
  Fbg: 520.8 mg/dL
  Hb: 13.1 g/dL
  Ht: 39.8%
  Lym: 82.6%
  MCH: 18.7 pg
  MCHC: 32.9%
  MCV: 56.8 fL
  Mono: 2.2%
  Neu: 13.2%
  PT: 15.3 s
  Plat: 164 x10_4/uL
  RBC: 701 x10_4/ul
  Ret: 4.9%
  WBC: 115.3 x10_2/uL
  KIDNEY_L: 1.2 g
  KIDNEY_R: 1.2 g
  KIDNEY_TOTAL: 2.3 g
  LIVER: 11.8 g
  A/G: 0.9
  ALP: 881.6 IU/L
  ALT: 37.2 IU/L
  AST: 52.4 IU/L
  BUN: 13 mg/dL
  CRE: 0.2 mg/dL
  Ca: 10.7 mg/dL
  Cl: 105.4 meq/L
  DBIL: 0.008 mg/dL
  GLC: 174.6 mg/dL
  IP: 6.7 mg/dL
  K: 3.8 meq/L
  LDH: 79.6 IU/L
  Na: 142.8 meq/L
  PL: 148.6 mg/dL
  RALB: 2.7 g/dL
  TBIL: 0.058 mg/dL
  TC: 81.6 mg/dL
  TG: 43.8 mg/dL
  TP: 5.8 g/dL
  gamma-GTP: 1 IU/L
[…], time 28 day
  TERMINAL_BW: 342.2 g
  APTT: 17.8 s
  Bas: 0.4%
  Eos: 1.8%
  Fbg: 646.8 mg/dL
  Hb: 12.1 g/dL
  Ht: 37.3%
  Lym: 71.2%
  MCH: 16.1 pg
  MCHC: 32.4%
  MCV: 49.8 fL
  Mono: 4.2%
  Neu: 21.6%
  PT: 15.7 s
  Plat: 156.3 x10_4/uL
  RBC: 749.2 x10_4/ul
  Ret: 5.6%
  WBC: 153.3 x10_2/uL
  KIDNEY_L: 1.4 g
  KIDNEY_R: 1.4 g
  KIDNEY_TOTAL: 2.8 g
  LIVER: 14.6 g
  A/G: 0.8
  ALP: 458.6 IU/L
  ALT: 26.8 IU/L
  AST: 43.6 IU/L
  BUN: 14.2 mg/dL
  CRE: 0.2 mg/dL
  Ca: 10.5 mg/dL
  Cl: 105 meq/L
  DBIL: 0.02 mg/dL
  GLC: 162.4 mg/dL
  IP: 6.5 mg/dL
  K: 4 meq/L
  LDH: 70.4 IU/L
  Na: 144 meq/L
  PL: 137.6 mg/dL
  RALB: 2.7 g/dL
  TBIL: 0.1 mg/dL
  TC: 77.2 mg/dL
  TG: 45.4 mg/dL
  TP: 5.9 g/dL
  gamma-GTP: 1.6 IU/L
